In patent US4731486A, “Hydroformylation using low volatile phosphine ligands” (Union Carbide Corporation, priority 1986, dated 1988):

Experiments:
[1] = Solubility of metal salt ligands in different aldehydes; type: physicochemical
[2] = Batch hydroformylation of hexene-1 (Example 14); details: Texanol/TPEG-990 3:1; 100° C.; 300 ppm Rh; 8.7 wt. % ligand; 75 psia 4:1 H2:CO
Protocol: Each rhodium catalytic precursor solution so prepared was then employed to hydroformylate propylene in a magnetically stirred, 100 mL capacity, stainless steel autoclave which was attached to a gas manifold for introducing gases to the desired partial pressures. The autoclave was also equipped with a pressure calibrator for determining reaction pressure to ±0.01 psia. and a platinum resistance thermometer for determining reactor solution temperatures to ±0.10° C. The reactor was heated externally by two 300 watt heating bands. The reactor solution temperature was controlled by a platinum resistance sensor connected to an external proportional temperature controller for controlling the temperature of the external band heaters.
In each non-aqueous hydroformylation reaction, about 15 milliliters (about 14 grams) of the rhodium catalytic precursor solution so prepared was charged to the autoclave reactor under nitrogen and heated to the reaction temperature employed (as given in Table 1 below). […]
The hydroformylation reaction rate in gram moles per liter per hour of C4 aldehydes produced was determined from sequential 5 psia. pressure drops in the reactor spanning the nominal operating pressure in the reactor, while the mole ratio of linear (n-butyraldehyde) to branched (2-methylpropionaldehyde) product was measured by gas chromatography and the results are given in Table 1 below. […]

[3] = Continuous catalyst liquid recycle hydroformylation of octene-1 (Example 6)
From the text: In a continuous catalyst liquid recycle manner, an olefin starting material of octene-1 was hydroformylated for six days as follows.
The liquid recycle reactor system employed contained two 2.8 liter stainless steel stirred tank reactors, connected in series, each containing a vertically mounted agitator and a circular tubular sparger near the bottom of the reactor for feeding the syn gas. The sparger contained a plurality of holes of sufficient size to provide the desired gas flow into the liquid body. Reactor 1 contained a silicone oil shell as means of bringing the contents of the reactors up to reaction temperature while the reaction solution in Reactor 2 was heated by an electrical heater. Both reactors contained internal cooling coils for controlling the reaction temperature. Reactors 1 and 2 were connected via a line to transfer any unreacted gases from reactor 1 to reactor 2 and were further connected via a line so that a portion of the liquid reaction solution containing aldehyde product and catalyst from reactor 1 could be pumped into reactor 2 wherein the unreacted olefin of reactor 1 is further hydroformylated in reactor 2.
Each reactor also contained a pneumatic liquid level controller for automatic control of the liquid levels in the reactors. Reactor 1 further contained a line for introducing the liquid olefin using a metering pump, and a line for introducing syn gas through the sparger, while make up syn gas was added to reactor 2 via the same transfer line carrying the unreacted syn gas from reactor 1. Reactor 2 also contained a blow-off vent for removal of the unreacted gases. A line from the bottom of reactor 2 was connected to the top of a vaporizer so that a portion of the liquid reaction solution could be pumped from reactor 2 to the vaporizer. The vaporizer was maintained at reduced pressure with the help of a vacuum pump. Vaporized aldehyde was disengaged from the non-volatilized components of the liquid reaction solution in the gas-liquid separator part of the vaporizer. The remaining non-volatilized catalyst containing liquid reaction solution was pumped through a recycle line back into reactor 1. The recycle line also contained a pneumatic liquid level controller. The vaporized aldehyde product was passed into a water-cooled condenser, liquified and collected in a product receiver.

[4] = HPLC analysis of ligand concentration in hydroformylation reaction mediums; type: physicochemical; details: both reactors, six days of operation
[5] = Continuous single pass hydroformylation of butene-1 (Examples 3, 4, 5, 7, 12); details: Texanol/PEG-600 10:1
Protocol: Continuous hydroformylation of butene-1 a monosulfonated triphenylphosphine metal salt ligand was conducted in the following manner.
The non-aqueous hydroformylation was conducted in a glass reactor operating in a continuous single pass butene-1 hydroformylation mode. The reactor consisted of a three-ounce pressure bottle submersed in an oil bath with a lass front for viewing. About 20-mL of a freshly prepared rhodium catalytic precursor solution was charged to the reactor with a syringe, after purging the system with nitrogen. […] After closing the reactor, the system was again purged with nitrogen and the oil bath was heated to furnish the desired hydroformylation reaction temperature. The hydroformylation reaction was conducted at a total gas pressure of about 160 psig., the partial pressures of hydrogen, carbon monoxide, and butene-1 being given in Table 3 below, the remainder being nitrogen and aldehyde product.
The flows of the feed gases (carbon monoxide, hydrogen, butene-1 and nitrogen) were controlled individually with mass flow meters and the feed gases dispersed into the precursor solution via microporous stainless steel spargers. The unreacted portion of the feed gases was stripped out with the product C5 aldehydes and the outlet gas analyzed over about 12 days of continuous operation.

[6] = Solubility of TPPMS-Na in nonanal with various added solubilizing agents; type: physicochemical
Protocol: The solubility of a monosulfonated triphenylphosphine sodium salt ligand (TPPMS-Na) having the formula [drawing 28] was measured in C9 aldehyde (nonanal) in the presence of various added solubilizing agents and various mixtures of such agents for the ligand. […] The solubilizing agents and their mixtures were employed in a 1:2 weight:weight ratio with the nonanal.

[7] = day 1, reactors 80.1/85.8, CO 17.0/9.9 psia
[8] = day 2, reactors 80.0/85.6, CO 7.8/2.2 psia
[9] = day 3, reactors 80.1/85.7, CO 8.1/6.5 psia
[10] = day 6, reactors 80.0/85.0, CO 10.1/8.3 psia
[11] = day 0.9, […], CO 51, H2 59, C4H8 20 psia
[12] = day 2.0, 101 °C, CO 51, H2 47, C4H8 22 psia
[13] = day 3.0, 101 °C, CO 20, H2 53, C4H8 24 psia
[14] = day 4.0, 101 °C, CO 20, H2 30, C4H8 39 psia
[15] = day 5.6, 101 °C, CO 15, H2 64, C4H8 31 psia
[16] = day 5.9 (so in the source), 101 °C, CO 15, H2 63, C4H8 31 psia

## O=S(=O)([O-])c1cccc(P(c2ccccc2)c2ccccc2)c1.[Na+]
[1]; Butyraldehyde, 60 °C
  Metal Salt Solubility: 10.0 Wt. %
[1]; Heptanal, 80 °C
  Metal Salt Solubility: 0.4 Wt. %
[1]; Nonanal, 80 °C
  Metal Salt Solubility: 0.5 Wt. %
[1]; Propionaldehyde, 35 °C
  Metal Salt Solubility: 16.3 Wt. %
[1]; Tridecanal, 80 °C
  Metal Salt Solubility: 0.5 Wt. %
[1]; Valeraldehyde, 80 °C
  Metal Salt Solubility: 5.3 Wt. %
[2]
  Linear/Branched Aldehyde Mole Ratio: 13.4
  Reaction Rate: 5.21 G moles/L/hr
[3]; [7]
  C9 Aldehydes (rate): 1.02 gmoles/L/hr
  Linear/Branched Aldehyde Ratio: 14.0
[3]; [8]
  C9 Aldehydes (rate): 0.84 gmoles/L/hr
  Linear/Branched Aldehyde Ratio: 27.2
[3]; [9]
  C9 Aldehydes (rate): 0.81 gmoles/L/hr
  Linear/Branched Aldehyde Ratio: 24.7
[3]; [10]
  C9 Aldehydes (rate): 1.02 gmoles/L/hr
  Linear/Branched Aldehyde Ratio: 22.5
[4]
  change in ligand concentration of reaction mediums: no significant change
[5]; [11]
  Linear/Branched Aldehyde Mole Ratio: 7.68
  Rate (C5 aldehydes), daily average: 1.68 gmoles/L/Hr
[5]; [12]
  Linear/Branched Aldehyde Mole Ratio: 9.21
  Rate (C5 aldehydes), daily average: 1.81 gmoles/L/Hr
[5]; [13]
  Linear/Branched Aldehyde Mole Ratio: 21.08
  Rate (C5 aldehydes), daily average: 1.60 gmoles/L/Hr
[5]; [14]
  Linear/Branched Aldehyde Mole Ratio: 19.83
  Rate (C5 aldehydes), daily average: 2.50 gmoles/L/Hr
[5]; [15]
  Linear/Branched Aldehyde Mole Ratio: 23.74
  Rate (C5 aldehydes), daily average: 2.05 gmoles/L/Hr
[5]; [16]
  Linear/Branched Aldehyde Mole Ratio: 22.82
  Rate (C5 aldehydes), daily average: 2.06 gmoles/L/Hr
[6]; NIAX PPG-1025, 25 deg. C.
  TPPMS-Na Solubility: < 2 Weight Percent
[6]; NIAX PPG-1025, 100 deg. C.
  TPPMS-Na Solubility: 2 Weight Percent
[6]; TERGITOL 15-S-3/CARBOWAX PEG 600 (4:1), 25 deg. C.
  TPPMS-Na Solubility: 2 Weight Percent
[6]; TERGITOL 15-S-3/CARBOWAX PEG 600 (4:1), 100 deg. C.
  TPPMS-Na Solubility: > 10 Weight Percent
[6]; TERGITOL 15-S-3/CARBOWAX PEG 600/Methanol (4:1:1), 25 deg. C.
  TPPMS-Na Solubility: > 6 Weight Percent
[6]; TERGITOL 15-S-3, 25 deg. C.
  TPPMS-Na Solubility: 2 Weight Percent
[6]; TERGITOL 15-S-3, 100 deg. C.
  TPPMS-Na Solubility: 8 Weight Percent
[6]; TERGITOL 15-S-7/CARBOWAX TPEG 990 (3:1), 25 deg. C.
  TPPMS-Na Solubility: 10 Weight Percent
[6]; TERGITOL 15-S-7/CARBOWAX TPEG 990 (3:1), 100 deg. C.
  TPPMS-Na Solubility: 8 Weight Percent
[6]; TERGITOL 15-S-7, 25 deg. C.
  TPPMS-Na Solubility: 4 Weight Percent
[6]; TERGITOL 15-S-7, 100 deg. C.
  TPPMS-Na Solubility: 8 Weight Percent
[6]; TERGITOL 24-L-15N, 25 deg. C.
  TPPMS-Na Solubility: 2 Weight Percent
[6]; TERGITOL 24-L-15N, 100 deg. C.
  TPPMS-Na Solubility: 8 Weight Percent
[6]; TERGITOL 24-L-50N/CARBOWAX PEG 600 (4:1), 25 deg. C.
  TPPMS-Na Solubility: > 10 Weight Percent
[6]; TERGITOL 24-L-50N/CARBOWAX PEG 600 (4:1), 100 deg. C.
  TPPMS-Na Solubility: > 10 Weight Percent
[6]; TERGITOL 24-L-50N, 25 deg. C.
  TPPMS-Na Solubility: 4 Weight Percent
[6]; TERGITOL 24-L-50N, 100 deg. C.
  TPPMS-Na Solubility: 8 Weight Percent
[6]; TERGITOL 24-L-75N/CARBOWAX TPEG 990 (4:1), 25 deg. C.
  TPPMS-Na Solubility: 12 Weight Percent
[6]; TERGITOL 24-L-75N/CARBOWAX TPEG 990 (4:1), 100 deg. C.
  TPPMS-Na Solubility: 14 Weight Percent
[6]; TERGITOL 24-L-75N/CARBOWAX TPEG 990/Methanol (4:1:1), 25 deg. C.
  TPPMS-Na Solubility: > 16 Weight Percent
[6]; TERGITOL 24-L-75N/NIAX PPG 1025 (2:1), 25 deg. C.
  TPPMS-Na Solubility: > 10 Weight Percent
[6]; TERGITOL 24-L-75N/NIAX PPG 1025 (2:1), 100 deg. C.
  TPPMS-Na Solubility: > 10 Weight Percent
[6]; TERGITOL 24-L-75N, 25 deg. C.
  TPPMS-Na Solubility: 6 Weight Percent
[6]; TERGITOL 24-L-75N, 100 deg. C.
  TPPMS-Na Solubility: 8 Weight Percent
[6]; TERGITOL 25-L-5, 25 deg. C.
  TPPMS-Na Solubility: 4 Weight Percent
[6]; TERGITOL 25-L-5, 100 deg. C.
  TPPMS-Na Solubility: 6 Weight Percent
[6]; TERGITOL 26-L-5, 25 deg. C.
  TPPMS-Na Solubility: 2 Weight Percent
[6]; TERGITOL 26-L-5, 100 deg. C.
  TPPMS-Na Solubility: 6 Weight Percent
[6]; TERGITOL NP-4/CARBOWAX TPEG 990 (4:1), 25 deg. C.
  TPPMS-Na Solubility: 8 Weight Percent
[6]; TERGITOL NP-4/CARBOWAX TPEG 990 (4:1), 100 deg. C.
  TPPMS-Na Solubility: 10 Weight Percent
[6]; TERGITOL NP-4, 25 deg. C.
  TPPMS-Na Solubility: 2 Weight Percent
[6]; TERGITOL NP-4, 100 deg. C.
  TPPMS-Na Solubility: 6 Weight Percent
[6]; TERGITOL NP-9/CARBOWAX PEG 600 (3:1), 25 deg. C.
  TPPMS-Na Solubility: 10 Weight Percent
[6]; TERGITOL NP-9/CARBOWAX PEG 600 (3:1), 100 deg. C.
  TPPMS-Na Solubility: > 10 Weight Percent
[6]; TERGITOL NP-9/CARBOWAX PEG 600/Methanol (3:1:1), 25 deg. C.
  TPPMS-Na Solubility: > 12 Weight Percent
[6]; TERGITOL NP-9, 25 deg. C.
  TPPMS-Na Solubility: 4 Weight Percent
[6]; TERGITOL NP-9, 100 deg. C.
  TPPMS-Na Solubility: 6 Weight Percent
